Results from ChEMBL document CHEMBL5528042, “Identification of Novel, Selective Ataxia-Telangiectasia Mutated Kinase Inhibitors with the Ability to Penetrate the Blood-Brain Barrier: The Discovery of AZD1390” (J Med Chem, 2024).
≈ marks a conversion by molar mass, not a printed value. One block for each compound: values may come before it.

Key:
[1] = Lipophilicity, logD of the compound at pH 7.4; type: physicochemical; conditions: buffer
[2] = Unbound brain to plasma drug concentration ratio in mouse at 50 mg/kg,po administration and measured after 2 hrs; type: ADME, organism-based; conditions: read-out: K(p,uu,brain)
[3] = Intrinsic clearance in rat hepatocyte assessed per 10^6 cells; type: ADME, cell-based; conditions: hepatocytes, read-out: CLH
[4] = Aqueous solubility of the compound in pH 7.4; type: physicochemical; conditions: buffer
[5] = Intrinsic clearance in human hepatocyte assessed per 10^6 cells; type: ADME, cell-based; conditions: hepatocytes, read-out: CLH
MDR1, BCRP [6] = assay: Efflux ratio of apparent permeability across basolateral to apical side over apical to basolateral side in dog MDCKII-MDR1 cells overexpressing BCRP at 0.1 uM incubated for 90 mins by LC-MS/MS analysis; type: ADME, cell-based, Canis lupus familiaris, MDCK-MDR1
[7] = target: Serine/threonine-protein kinase ATR (Homo sapiens, UniProt Q13535); assay: Inhibition of ATR in human HT-29 cells incubated for 2 hrs by Alexa Fluor 488/Hoeschst staining based plate reader assay; type: cell-based
Serine/threonine-protein kinase ATR, sequence (Q13535 whole entry): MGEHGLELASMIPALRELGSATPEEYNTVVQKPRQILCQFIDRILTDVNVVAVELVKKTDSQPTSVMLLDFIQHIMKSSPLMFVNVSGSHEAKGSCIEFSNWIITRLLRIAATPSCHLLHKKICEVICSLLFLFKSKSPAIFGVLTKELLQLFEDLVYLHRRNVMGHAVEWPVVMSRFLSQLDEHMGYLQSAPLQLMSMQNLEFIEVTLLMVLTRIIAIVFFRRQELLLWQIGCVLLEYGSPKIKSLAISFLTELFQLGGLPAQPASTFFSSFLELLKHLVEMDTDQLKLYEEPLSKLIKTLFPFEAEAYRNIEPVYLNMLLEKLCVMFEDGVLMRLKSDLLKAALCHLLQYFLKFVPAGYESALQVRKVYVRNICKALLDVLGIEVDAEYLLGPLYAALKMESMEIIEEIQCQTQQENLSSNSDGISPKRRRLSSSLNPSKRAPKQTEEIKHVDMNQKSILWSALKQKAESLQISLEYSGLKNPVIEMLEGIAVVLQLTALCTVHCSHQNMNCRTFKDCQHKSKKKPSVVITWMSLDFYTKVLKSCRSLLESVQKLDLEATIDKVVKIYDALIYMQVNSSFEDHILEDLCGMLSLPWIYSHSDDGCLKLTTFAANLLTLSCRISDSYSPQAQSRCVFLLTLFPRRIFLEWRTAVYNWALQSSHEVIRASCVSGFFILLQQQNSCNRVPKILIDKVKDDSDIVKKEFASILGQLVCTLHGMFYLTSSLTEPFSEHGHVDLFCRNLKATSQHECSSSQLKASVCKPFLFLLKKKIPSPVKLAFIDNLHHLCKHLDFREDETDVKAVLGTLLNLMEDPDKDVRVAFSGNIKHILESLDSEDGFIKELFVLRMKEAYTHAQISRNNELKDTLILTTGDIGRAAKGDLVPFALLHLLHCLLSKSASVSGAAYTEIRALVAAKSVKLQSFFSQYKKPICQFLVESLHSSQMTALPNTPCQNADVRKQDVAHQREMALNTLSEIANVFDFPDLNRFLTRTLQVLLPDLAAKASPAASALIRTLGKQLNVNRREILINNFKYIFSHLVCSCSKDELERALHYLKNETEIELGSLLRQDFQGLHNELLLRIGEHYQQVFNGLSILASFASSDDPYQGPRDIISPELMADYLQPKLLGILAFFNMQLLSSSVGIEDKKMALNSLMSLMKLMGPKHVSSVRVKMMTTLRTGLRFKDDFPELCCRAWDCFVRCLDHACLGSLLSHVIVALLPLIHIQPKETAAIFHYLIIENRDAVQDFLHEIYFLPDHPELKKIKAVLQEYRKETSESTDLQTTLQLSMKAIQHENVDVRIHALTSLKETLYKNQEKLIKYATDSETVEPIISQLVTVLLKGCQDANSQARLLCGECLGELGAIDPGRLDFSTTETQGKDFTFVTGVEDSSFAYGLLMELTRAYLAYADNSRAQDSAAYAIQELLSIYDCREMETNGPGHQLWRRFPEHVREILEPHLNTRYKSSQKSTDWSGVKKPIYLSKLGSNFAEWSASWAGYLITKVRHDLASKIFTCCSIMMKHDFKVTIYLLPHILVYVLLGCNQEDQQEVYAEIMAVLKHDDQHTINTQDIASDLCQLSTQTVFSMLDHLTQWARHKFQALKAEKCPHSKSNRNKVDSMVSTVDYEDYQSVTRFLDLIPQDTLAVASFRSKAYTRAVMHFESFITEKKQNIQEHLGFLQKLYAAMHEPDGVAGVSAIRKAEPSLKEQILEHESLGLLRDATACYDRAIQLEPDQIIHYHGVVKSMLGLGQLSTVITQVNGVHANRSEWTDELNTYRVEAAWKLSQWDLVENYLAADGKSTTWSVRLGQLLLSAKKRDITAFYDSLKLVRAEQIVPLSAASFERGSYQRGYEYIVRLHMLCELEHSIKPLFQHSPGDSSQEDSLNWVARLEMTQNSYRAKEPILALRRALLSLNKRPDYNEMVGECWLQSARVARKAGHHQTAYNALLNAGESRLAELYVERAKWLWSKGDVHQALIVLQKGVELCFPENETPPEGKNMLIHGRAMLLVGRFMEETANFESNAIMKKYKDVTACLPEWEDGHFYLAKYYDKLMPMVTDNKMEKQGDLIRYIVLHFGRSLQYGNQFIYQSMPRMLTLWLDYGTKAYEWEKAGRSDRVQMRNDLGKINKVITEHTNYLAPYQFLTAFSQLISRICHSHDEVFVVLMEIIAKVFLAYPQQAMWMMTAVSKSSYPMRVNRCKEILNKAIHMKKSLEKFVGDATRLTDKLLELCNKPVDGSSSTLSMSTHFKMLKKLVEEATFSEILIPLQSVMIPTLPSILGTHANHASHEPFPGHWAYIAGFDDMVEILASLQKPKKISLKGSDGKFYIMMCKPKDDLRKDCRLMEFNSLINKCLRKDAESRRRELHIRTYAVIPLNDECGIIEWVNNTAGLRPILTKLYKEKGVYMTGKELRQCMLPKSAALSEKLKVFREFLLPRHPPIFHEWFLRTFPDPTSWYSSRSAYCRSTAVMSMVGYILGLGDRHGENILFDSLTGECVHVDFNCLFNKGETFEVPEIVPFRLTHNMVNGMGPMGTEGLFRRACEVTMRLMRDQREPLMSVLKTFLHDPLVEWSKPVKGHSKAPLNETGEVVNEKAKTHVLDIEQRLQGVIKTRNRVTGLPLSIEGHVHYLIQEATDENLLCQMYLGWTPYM

[8] = Apparent permeability across apical to basolateral side in dog MDCKII-MDR1 cells overexpressing BCRP at 1 uM incubated for 90 mins by LC-MS/MS analysis; type: ADME, cell-based, Canis lupus familiaris, MDCK-MDR1
[9] = Apparent permeability across apical to basolateral side in dog MDCKII-MDR1 cells overexpressing BCRP at 0.1 uM incubated for 90 mins by LC-MS/MS analysis; type: ADME, cell-based, Canis lupus familiaris, MDCK-MDR1
MDR1, BCRP [10] = assay: Efflux ratio of apparent permeability across basolateral to apical side over apical to basolateral side in dog MDCKII-MDR1 cells overexpressing BCRP at 1 uM incubated for 90 mins by LC-MS/MS analysis; type: ADME, cell-based, Canis lupus familiaris, MDCK-MDR1
[11] = target: Serine-protein kinase ATM (Homo sapiens, UniProt Q13315); assay: Inhibition of ATM in human HT-29 cells incubated for 2 hrs by Alexa Fluor 488/Hoeschst staining based plate reader assay; type: cell-based
[12] = Bioavailability in rat at 1 mg/kg,po or 0.5 mg/kg,iv administration measured for 24 hrs by LC-MS/MS analysis; type: ADME, organism-based; conditions: in vivo
[13] = Plasma protein binding in rat assessed as unbound fraction incubated for 16 hrs by equilibrium dialysis based UPLC-MS/MS analysis; type: ADME, cell-free
[14] = Volume of distribution at steady state in dog at 2 mg/kg,po or 1 mg/kg,iv administration measured for 24 hrs by LC-MS/MS analysis; type: ADME, organism-based, Canis lupus familiaris; conditions: in vivo
[15] = target: Phosphatidylinositol 4,5-bisphosphate 3-kinase catalytic subunit alpha isoform (Homo sapiens, UniProt P42336); assay: Inhibition of PI3Kalpha in human BT-474 cells incubated for 140 mins by ELISA; type: cell-based
Phosphatidylinositol 4,5-bisphosphate 3-kinase catalytic subunit alpha isoform, sequence (P42336 whole entry, canonical isoform): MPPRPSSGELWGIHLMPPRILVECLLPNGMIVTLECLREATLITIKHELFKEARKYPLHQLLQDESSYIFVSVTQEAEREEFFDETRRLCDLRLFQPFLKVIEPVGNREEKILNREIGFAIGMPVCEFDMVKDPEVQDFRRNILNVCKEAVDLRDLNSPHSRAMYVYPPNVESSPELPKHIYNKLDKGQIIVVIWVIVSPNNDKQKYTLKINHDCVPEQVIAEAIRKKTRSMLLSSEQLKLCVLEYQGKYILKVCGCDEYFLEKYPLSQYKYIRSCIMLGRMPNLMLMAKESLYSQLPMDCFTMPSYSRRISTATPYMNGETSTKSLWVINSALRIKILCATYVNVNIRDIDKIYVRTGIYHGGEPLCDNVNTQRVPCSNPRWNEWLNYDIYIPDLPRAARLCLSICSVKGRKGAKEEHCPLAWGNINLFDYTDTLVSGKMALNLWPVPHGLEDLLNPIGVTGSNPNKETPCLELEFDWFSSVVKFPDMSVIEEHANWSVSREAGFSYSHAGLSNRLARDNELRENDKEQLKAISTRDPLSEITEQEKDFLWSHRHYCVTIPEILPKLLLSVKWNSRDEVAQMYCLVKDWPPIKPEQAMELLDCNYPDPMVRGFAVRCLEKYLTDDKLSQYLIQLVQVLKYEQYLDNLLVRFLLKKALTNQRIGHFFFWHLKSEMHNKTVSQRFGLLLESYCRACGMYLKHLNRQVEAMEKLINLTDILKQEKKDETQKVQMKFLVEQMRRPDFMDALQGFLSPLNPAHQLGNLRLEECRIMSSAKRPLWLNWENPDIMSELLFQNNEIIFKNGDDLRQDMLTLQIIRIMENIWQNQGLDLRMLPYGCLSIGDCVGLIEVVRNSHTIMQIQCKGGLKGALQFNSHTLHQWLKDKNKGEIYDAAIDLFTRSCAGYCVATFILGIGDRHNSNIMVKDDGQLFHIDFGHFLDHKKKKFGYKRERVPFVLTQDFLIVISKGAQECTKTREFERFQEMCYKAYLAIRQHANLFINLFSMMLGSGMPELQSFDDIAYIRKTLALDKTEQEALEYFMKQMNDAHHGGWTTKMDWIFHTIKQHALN

[16] = Half life in rat at 1 mg/kg,po or 0.5 mg/kg,iv administration measured for 24 hrs by LC-MS/MS analysis; type: ADME, organism-based; conditions: in vivo
[17] = Half life in dog at 2 mg/kg,po or 1 mg/kg,iv administration measured for 24 hrs by LC-MS/MS analysis; type: ADME, organism-based, Canis lupus familiaris; conditions: in vivo
[18] = Intrinsic clearance in dog hepatocyte assessed per 10^6 cells; type: ADME, cell-based, Canis lupus familiaris; conditions: hepatocytes, read-out: CLH
[19] = Dissociation constant, pKa of compound; type: physicochemical
[20] = target: Serine/threonine-protein kinase mTOR (Homo sapiens, UniProt P42345); assay: Inhibition of mTOR in human MDA-MB-468 cells incubated for 2.5 hrs by Alexa Fluor 488 staining based fluorescence analysis; type: cell-based
[21] = Volume of distribution at steady state in rat at 1 mg/kg,po or 0.5 mg/kg,iv administration measured for 24 hrs by LC-MS/MS analysis; type: ADME, organism-based; conditions: in vivo
[22] = Plasma protein binding in human assessed as unbound fraction incubated for 16 hrs by equilibrium dialysis based UPLC-MS/MS analysis; type: ADME, cell-free
[23] = Plasma protein binding in dog assessed as unbound fraction incubated for 16 hrs by equilibrium dialysis based UPLC-MS/MS analysis; type: ADME, cell-free, Canis lupus familiaris
[24] = Intrinsic clearance in human liver microsomes; type: ADME, Microsome; conditions: read-out: CLH
[25] = Tmax in Cynomolgus monkey at iv administered as bolus injection measured at 4 to 90 mins by gamma counter analysis; type: ADME, organism-based, Macaca fascicularis; conditions: in vivo, time 4-90 min
[26] = Unbound fraction in Cynomolgus monkey plasma at iv administered as bolus injection measured at 4 to 90 mins by PET analysis; type: ADME, organism-based, Macaca fascicularis; conditions: time 4-90 min
[27] = Unbound fraction in Cynomolgus monkey brain at iv administered as bolus injection measured at 4 to 90 mins by PET analysis; type: ADME, organism-based, Macaca fascicularis; conditions: time 4-90 min
[28] = Unbound brain to plasma drug concentration ratio in Cynomolgus monkey at iv administered as bolus injection measured at 4 to 90 mins by PET analysis; type: ADME, organism-based, Macaca fascicularis; conditions: time 4-90 min, read-out: K(p,uu,brain)

Compound: Cn1c(=O)n(C2CCOCC2)c2c3cc(-c4cccnc4)ccc3ncc21
- logD [1]: 2.2
- Kp uu at 2 h [2]: 0.67

Compound: CC(C)n1c(=O)n(C)c2cnc3ccc(-c4ccc(OCCCN5CCCC5)nc4)cc3c21
- hepatocyte CLint [3]: 1.8 µL/min/1e6 cells
- solubility [4]: 499 µM (≈ 222 µg/mL)
- logD [1]: 2
- hepatocyte CLint [5]: 2.6 µL/min/1e6 cells
- efflux ratio at […], 0.1 µM (MDR1, BCRP [6]): 2.6
- IC50 [7]: > 31600 nM
- Papp A→B at […], 1 µM [8]: 25 ×10⁻⁶ cm/s
- Papp A→B at […], 0.1 µM [9]: 24 ×10⁻⁶ cm/s
- efflux ratio at […], 1 µM (MDR1, BCRP [10]): 0.8
- IC50 [11]: 0.251 nM

Compound: CC(C)n1c(=O)n(C)c2cnc3ccc(-c4ccc(N5CC[C@@H](N(C)C)C5)nc4)cc3c21
- bioavailability [12]: 53%
- fraction unbound at 16 h [13]: 0.004
- Vdss [14]: 7.5 L/kg
- IC50 [15]: 316 nM
- hepatocyte CLint [3]: 27 µL/min/1e6 cells
- half-life [16]: 2.9 h
- solubility [4]: 22 µM (≈ 9.47 µg/mL)
- logD [1]: 3
- hepatocyte CLint [5]: 4.5 µL/min/1e6 cells
- half-life [17]: 1.6 h
- hepatocyte CLint [18]: 80 µL/min/1e6 cells
- pKa [19]: 7.9
- Papp A→B at […], 1 µM [8]: 27 ×10⁻⁶ cm/s
- IC50 [20]: 3160 nM
- Vdss [21]: 0.6 L/kg
- fraction unbound at 16 h [22]: 0.07
- fraction unbound at 16 h [23]: 0.26

Compound: CC(C)n1c(=O)n(C)c2cnc3ccc(-c4ccc(OCCCN5CCC(F)CC5)nc4)cc3c21
- hepatocyte CLint [3]: 29 µL/min/1e6 cells
- solubility [4]: 15 µM (≈ 7.16 µg/mL)
- microsomal CLint [24]: 100 µL/min/mg
- logD [1]: 3.3
- hepatocyte CLint [5]: 8.5 µL/min/1e6 cells
- pKa [19]: 8.5
- Papp A→B at […], 1 µM [8]: 13 ×10⁻⁶ cm/s
- Papp A→B at […], 0.1 µM [9]: 14 ×10⁻⁶ cm/s

Continued, values first:

- hepatocyte CLint [3]: 20 µL/min/1e6 cells
- solubility [4]: 43 µM (≈ 19.9 µg/mL)
- microsomal CLint [24]: 65 µL/min/mg
- logD [1]: 3
- hepatocyte CLint [5]: 7.2 µL/min/1e6 cells
- IC50 [7]: > 20000 nM
- pKa [19]: 8.1
- Papp A→B at […], 0.1 µM [9]: 19 ×10⁻⁶ cm/s
Compound: CC(C)n1c(=O)n(C)c2cnc3ccc(-c4ccc(OCCCN5CC[C@H](F)C5)nc4)cc3c21

- Tmax [25]: 4.5 min
- fraction unbound [26]: 0.195
- fraction unbound [27]: 0.02
- Kp uu [28]: 0.41
Compound: CC(C)n1c(=O)n([11CH3])c2cnc3cc(F)c(-c4ccc(OCCCN(C)C)nc4)cc3c21

- Tmax [25]: 9.3 min
- fraction unbound [26]: 0.175
- fraction unbound [27]: 0.01
- Kp uu [28]: 0.33
Compound: CC(C)n1c(=O)n([11CH3])c2cnc3cc(F)c(-c4ccc(OCCCN5CCCCC5)nc4)cc3c21
